Experimental data reported in patent US20240270751A1, “Pyrazolopyridinone Compounds” (BeiGene Ltd., priority 2021, published 2024).

Columns and labels:
DGKζ = DGKζ (Homo sapiens (Human), UniProt Q13574); test: Biochemical DGK IC50 assay, DGKζ ADP-Glo assay; conditions: 0.5 nM enzyme, 140 μM ATP, 80 μM DAG; read-out: DGKζ ADP-Glo assay IC50
Summary of the method: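 Full-length human DGKζ, His-TEV tagged and purified from baculovirus-infected Sf9 cells, assayed by ADP-Glo with DAG/PS lipid micelle substrate prepared in 25 mM HEPES pH 7.0 with octyl glucoside. Final compound concentrations spanned 1.55–10000 nM or 23.3–150000 nM.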

DGKα = DGKα (Homo sapiens (Human), UniProt P23743); test: Biochemical DGK IC50 assay, DGKα ADP-Glo assay; conditions: 7.5 nM enzyme, 140 μM ATP, 80 μM DAG
Summary of the method: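 ADP-Glo read-out with full-length DGKα on DAG/PS lipid micelle substrate in 25 mM HEPES pH 7.0, 0.5 mM EDTA, 160 mM octyl β-D-glucopyranoside. Compound final concentrations spanned 1.55˜10000 nM or 23.3˜150000 nM.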

Sequence of DGKζ (Q13574 other isoform, or with tags, fused parts or gaps): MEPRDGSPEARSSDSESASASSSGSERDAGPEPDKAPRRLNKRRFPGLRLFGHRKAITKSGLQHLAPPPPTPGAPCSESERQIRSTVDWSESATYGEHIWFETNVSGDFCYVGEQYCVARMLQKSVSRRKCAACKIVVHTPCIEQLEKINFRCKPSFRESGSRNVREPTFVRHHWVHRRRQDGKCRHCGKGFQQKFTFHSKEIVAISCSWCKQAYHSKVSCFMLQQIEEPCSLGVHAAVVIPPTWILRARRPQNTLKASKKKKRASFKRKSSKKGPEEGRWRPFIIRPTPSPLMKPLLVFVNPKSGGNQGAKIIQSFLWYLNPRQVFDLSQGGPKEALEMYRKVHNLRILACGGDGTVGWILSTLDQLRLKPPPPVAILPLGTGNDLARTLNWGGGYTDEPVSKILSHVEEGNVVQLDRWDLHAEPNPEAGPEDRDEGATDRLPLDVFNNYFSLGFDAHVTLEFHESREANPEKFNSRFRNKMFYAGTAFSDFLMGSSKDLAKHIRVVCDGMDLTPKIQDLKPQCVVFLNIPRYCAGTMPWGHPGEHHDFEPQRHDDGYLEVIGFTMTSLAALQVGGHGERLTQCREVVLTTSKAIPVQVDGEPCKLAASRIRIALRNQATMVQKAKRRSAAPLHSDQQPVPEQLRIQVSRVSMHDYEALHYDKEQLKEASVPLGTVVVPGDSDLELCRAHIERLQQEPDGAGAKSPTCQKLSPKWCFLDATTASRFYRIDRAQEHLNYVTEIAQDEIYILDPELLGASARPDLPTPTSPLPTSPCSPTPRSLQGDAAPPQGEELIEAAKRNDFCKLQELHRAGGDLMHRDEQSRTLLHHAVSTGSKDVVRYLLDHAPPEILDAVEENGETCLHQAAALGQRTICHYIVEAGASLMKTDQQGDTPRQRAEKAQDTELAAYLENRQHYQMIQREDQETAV
Sequence of DGKα (P23743 whole entry): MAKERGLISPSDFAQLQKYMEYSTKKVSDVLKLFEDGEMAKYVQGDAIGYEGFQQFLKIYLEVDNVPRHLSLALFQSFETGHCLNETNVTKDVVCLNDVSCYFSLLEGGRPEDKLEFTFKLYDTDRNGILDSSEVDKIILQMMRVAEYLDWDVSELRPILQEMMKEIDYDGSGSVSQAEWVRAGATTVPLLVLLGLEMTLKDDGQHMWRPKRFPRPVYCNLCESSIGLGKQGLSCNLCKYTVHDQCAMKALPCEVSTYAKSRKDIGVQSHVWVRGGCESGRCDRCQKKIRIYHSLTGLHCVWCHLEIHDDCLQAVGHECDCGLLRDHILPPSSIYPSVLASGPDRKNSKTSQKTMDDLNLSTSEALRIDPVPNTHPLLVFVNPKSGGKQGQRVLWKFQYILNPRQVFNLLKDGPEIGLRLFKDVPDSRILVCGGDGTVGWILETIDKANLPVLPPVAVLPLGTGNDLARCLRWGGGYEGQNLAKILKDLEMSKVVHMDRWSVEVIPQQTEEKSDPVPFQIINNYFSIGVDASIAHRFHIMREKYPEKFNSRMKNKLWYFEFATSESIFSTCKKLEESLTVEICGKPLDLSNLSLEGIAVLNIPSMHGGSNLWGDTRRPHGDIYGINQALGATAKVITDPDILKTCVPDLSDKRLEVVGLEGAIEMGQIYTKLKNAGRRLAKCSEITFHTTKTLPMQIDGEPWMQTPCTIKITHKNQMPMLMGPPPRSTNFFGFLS

Structure (SMILES)	IC50 (DGKζ) [µM]	IC50 (DGKα) [µM]
CC[C@H]1CN(C(C)c2ccc3nccnc3c2)[C@H](CC)CN1c1cc(=O)n(CCOC)c2cn(CC#N)nc12 (stereo partly drawn) [Compound A96, 2-(7-((2S,5R)-2,5-diethyl-4-(1-(quinoxalin-6-yl)ethyl)piperazin-1-yl)-4-(2-methoxyethyl)-5-oxo-4,5-dihydro-2H-pyrazolo[4,3-b]pyridin-2-yl)acetonitrile]	0.255	> 10
COC(=O)Cn1cc2c(n1)c(N1C[C@@H](C)N(C(C)c3ccc4nccnc4c3)C[C@@H]1C)cc(=O)n2C (some centres unmarked) [Compound A7]	1.03	> 10
CC[C@H]1CN(C(C)c2ncc(OC(C)C)cc2F)[C@H](CC)CN1c1cc(=O)n(C)c2cn(CC#N)nc12 (some centres unmarked) [Compound A387]	4.89	75
COC[C@H]1CN(C(C)c2ccc3nccnc3c2)[C@H](C)CN1c1cc(=O)n(C)c2cn(CC#N)nc12 (stereo partly drawn) [Compound A143, 2-(7-((2R,5R)-2-(methoxymethyl)-5-methyl-4-(1-(quinoxalin-6-yl)ethyl)piperazin-1-yl)-4-methyl-5-oxo-4,5-dihydro-2H-pyrazolo[4,3-b]pyridin-2-yl)acetonitrile]	0.253	> 10
CC[C@H]1CN(C(C)c2cnn(C)c2C(F)F)[C@H](CC)CN1c1cc(=O)n(C)c2cn(CC#N)nc12 (some centres unmarked) [Compound A234]	0.159	7.33
CC[C@H]1CN(C(C)c2ccc(C(F)(F)F)nc2)[C@H](CC)CN1c1cc(=O)n(C)c2cn(CC#N)nc12 (single isomer, unassigned) [Compound A135b]	1.3	0.428
CC[C@H]1CN(C(C)c2ccccc2)[C@H](CC)CN1c1cc(=O)n(C)c2cn(CC#N)nc12 (some centres unmarked) [Compound A89]	0.296	0.0043
CC[C@H]1CN(C(C)c2cc(Cl)nn2CC)[C@H](CC)CN1c1cc(=O)n(C)c2cn(CC#N)nc12 (some centres unmarked) [Compound A212]	1.13	> 10
CCC(c1ccc(F)cc1C(F)(F)F)N1C[C@H](C)N(c2cc(=O)n(C)c3cn(CC#N)nc23)C[C@H]1C (some centres unmarked) [Compound A256]	0.315	> 10
CC(c1ccc2c(c1)C(F)(F)CCO2)N1C[C@H](C)N(c2cc(=O)n(C)c3cn(CC#N)nc23)C[C@H]1C (stereo partly drawn) [Compound A331, 2-(7-((2S,5R)-4-(1-(4,4-difluorochroman-6-yl)ethyl)-2,5-dimethylpiperazin-1-yl)-4-methyl-5-oxo-4,5-dihydro-2H-pyrazolo[4,3-b]pyridin-2-yl)acetonitrile]	0.046	31.8
C=CCn1cc2c(n1)c(N1C[C@@H](C)N(C(C)c3ccc4nccnc4c3)C[C@@H]1C)cc(=O)n2C (single isomer, unassigned) [Compound A299, 2-allyl-7-((2S,5R)-2,5-dimethyl-4-((S)-1-(quinoxalin-6-yl)ethyl)piperazin-1-yl)-4-methyl-2,4-dihydro-5H-pyrazolo[4,3-b]pyridin-5-one, or 2-allyl-7-((2S,5R)-2,5-dimethyl-4-((R)-1-(quinoxalin-6-yl)ethyl)piperazin-1-yl)-4-methyl-2,4-dihydro-5H-pyrazolo[4,3-b]pyridin-5-one]	0.09	66.1
CC[C@H]1CN(C(C)c2cccnc2OC)[C@H](CC)CN1c1cc(=O)n(C)c2cn(CC#N)nc12 (some centres unmarked) [Compound A105]	0.258	8.92
CC[C@@H]1CN(c2cc(=O)n(C)c3cn(CC#N)nc23)[C@@H](C)CN1C(C)c1ccc(C(F)(F)F)cc1F (single isomer, unassigned) [Compound A202a]	0.176	0.7
CC(c1c(Cl)cc(F)cc1Cl)N1C[C@H](C)N(c2cc(=O)n(C)c3cn(CC#N)nc23)C[C@H]1C (some centres unmarked) [Compound A272]	0.411	> 10
Cc1cnc2ccc(C(C)N3C[C@H](C)N(c4cc(=O)n(C)c5cn(CC#N)nc45)C[C@H]3C)cc2n1 (stereo partly drawn) [Compound A269 (RII), 2-(7-((2S,5R)-2,5-dimethyl-4-(1-(3-methylquinoxalin-6-yl)ethyl)piperazin-1-yl)-4-methyl-5-oxo-4,5-dihydro-2H-pyrazolo[4,3-b]pyridin-2-yl)acetonitrile]	0.035	> 10
C#CCn1cc2c(n1)c(N1C[C@@H](C)N(C(C)c3ccc4nccnc4c3)C[C@@H]1C)cc(=O)n2C (some centres unmarked) [Compound A21]	0.31	5.3
CC[C@H]1CN(C(C)c2ncccc2COC)[C@H](CC)CN1c1cc(=O)n(C)c2cn(CC#N)nc12 (some centres unmarked) [Compound A93]	3.66	> 10

Structure (SMILES)	IC50 (DGKζ) [µM]	IC50 (DGKα) [µM]
Cc1cnc2ccc([C@H](C)N3C[C@H](C)N(c4c(F)c(=O)n(C)c5cn(CC#N)nc45)C[C@H]3C)cc2n1 [Compound A317, 2-(7-((2S,5R)-2,5-dimethyl-4-((S)-1-(3-methylquinoxalin-6-yl)ethyl)piperazin-1-yl)-6-fluoro-4-methyl-5-oxo-4,5-dihydro-2H-pyrazolo[4,3-b]pyridin-2-yl)acetonitrile]	0.021	8.65
CC[C@H]1CN(C(C)c2ccc(F)cc2COC)[C@H](CC)CN1c1cc(=O)n(C)c2cn(CC#N)nc12 (stereo partly drawn) [Compound A79, 2-(7-((2S,5R)-2,5-diethyl-4-(1-(4-fluoro-2-(methoxymethyl)phenyl)ethyl)piperazin-1-yl)-4-methyl-5-oxo-4,5-dihydro-2H-pyrazolo[4,3-b]pyridin-2-yl)acetonitrile]	0.115	2.48
CC(c1ccc2nccnc2c1)N1C[C@H](C)N(c2nc(=O)n(C)c3cn(CC#N)nc23)C[C@H]1C (single isomer, unassigned) [Compound A220, 2-(7-((2S,5R)-2,5-dimethyl-4-((S)-1-(quinoxalin-6-yl)ethyl)piperazin-1-yl)-4-methyl-5-oxo-4,5-dihydro-2H-pyrazolo[4,3-d]pyrimidin-2-yl)acetonitrile, or 2-(7-((2S,5R)-2,5-dimethyl-4-((R)-1-(quinoxalin-6-yl)ethyl)piperazin-1-yl)-4-methyl-5-oxo-4,5-dihydro-2H-pyrazolo[4,3-d]pyrimidin-2-yl)acetonitrile]	0.067	8.69
CC[C@H]1CN(C(C)c2ccc(F)cc2C#N)[C@H](CC)CN1c1cc(=O)n(C)c2cn(CC#N)nc12 (single isomer, unassigned) [Compound A224b]	4.94	4.15
CC[C@H]1CN(C(C)c2ccc3ccncc3c2)[C@H](CC)CN1c1cc(=O)n(C)c2cn(CC#N)nc12 (stereo partly drawn) [Compound A62, 2-(7-((2S,5R)-2,5-diethyl-4-(1-(isoquinolin-7-yl)ethyl)piperazin-1-yl)-4-methyl-5-oxo-4,5-dihydro-2H-pyrazolo[4,3-b]pyridin-2-yl)acetonitrile]	0.048	0.04
CC[C@H]1CN(C(C)c2cccc(=O)n2CC)[C@H](CC)CN1c1cc(=O)n(C)c2cn(CC#N)nc12 (some centres unmarked) [Compound A207]	4.05	> 10
CC(c1ccc2ncc(CO)nc2c1)N1C[C@H](C)N(c2cc(=O)n(C)c3cn(CC#N)nc23)C[C@H]1C (single isomer, unassigned) [Compound A309b]	0.369	87
CC[C@@H]1CN(c2cc(=O)n(C)c3cn(CC#N)nc23)[C@@H](CC)CN1Cc1ccc(OC(F)(F)F)cc1 [Compound A77]	0.6	0.0092
C=C(C)n1cc2c(n1)c(N1C[C@@H](CC)N(C(C)c3ccc4nccnc4c3)C[C@@H]1CC)cc(=O)n2C (stereo partly drawn) [Compound A25, 7-((2S,5R)-2,5-diethyl-4-(1-(quinoxalin-6-yl)ethyl)piperazin-1-yl)-4-methyl-2-(prop-1-en-2-yl)-2,4-dihydro-5H-pyrazolo[4,3-b]pyridin-5-one]	0.51	0.054
Cc1nc2cc(C(C)N3C[C@H](C)N(c4cc(=O)n(C)c5cn(CC#N)nc45)C[C@H]3C)ccc2nc1O (stereo partly drawn) [Compound A316, 2-(7-((2S,5R)-4-(1-(2-hydroxy-3-methylquinoxalin-6-yl)ethyl)-2,5-dimethylpiperazin-1-yl)-4-methyl-5-oxo-4,5-dihydro-2H-pyrazolo[4,3-b]pyridin-2-yl)acetonitrile]	> 10	67
CC[C@H]1CN(C(C)c2cnccn2)[C@H](CC)CN1c1cc(=O)n(C)c2cn(CC#N)nc12 (some centres unmarked) [Compound A88]	9.44	0.118
CC[C@H]1CN(C(C)c2ccccc2COC)[C@H](CC)CN1c1cc(=O)n(C)c2cn(CC#N)nc12 (some centres unmarked) [Compound A107]	0.272	> 10
Cc1cnc2ccc([C@H](C)N3C[C@H](C)N(c4cc(=O)[nH]c5cn(CC#N)nc45)C[C@H]3C)cc2n1 [Compound A308]	0.072	88.3
CC(c1ccc2nccnc2c1)N1C[C@H](C)N(c2cc(=O)n(C)c3cn(C4(C#N)CC4)nc23)C[C@H]1C (stereo partly drawn) [Compound A16, 1-(7-((2S,5R)-2,5-dimethyl-4-(1-(quinoxalin-6-yl)ethyl)piperazin-1-yl)-4-methyl-5-oxo-4,5-dihydro-2H-pyrazolo[4,3-b]pyridin-2-yl)cyclopropane-1-carbonitrile]	4.2	9.6
CC[C@H]1CN(C(C)c2ccc(C)cc2)[C@H](CC)CN1c1cc(=O)n(C)c2cn(CC#N)nc12 (single isomer, unassigned) [Compound A127b]	3.71	0.177
CC[C@H]1CN(C(C)c2ccc(F)cc2NC)[C@H](CC)CN1c1cc(=O)n(C)c2cn(CC#N)nc12 (some centres unmarked) [Compound A163]	4.42	> 10
CC[C@H]1CN(C(C)c2ccc(F)cc2OC)[C@H](CC)CN1c1cc(=O)n(CCO)c2cn(CC#N)nc12 (single isomer, unassigned) [Compound A153a]	9.34	> 10
